From ChEMBL document CHEMBL1201862, “PubChem BioAssay data set” (2004)
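48-hour exposure; five concentrations; linearly interpolated endpoints. Here, GI50 denotes the concentration required for 50% inhibition of growth.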 Activity calls are given as the source filed them. Rule as the data show it: active = GI50 up to about 1.1 µM and inactive = higher.

Columns and labels:
Test in all cases: NCI anticancer screen, dose series, 48 h
SF-295 = system: SF-295
HT-29 = system: HT-29
Malme-3M = system: Malme-3M
PC-3 = system: PC-3
HOP-92 = system: HOP-92
BT-549 = system: BT-549
OVCAR-3 = system: OVCAR-3
COLO 205 = system: COLO 205
SNB-19 = system: SNB-19
HCC 2998 = system: HCC 2998
MDA-MB-435 = system: MDA-MB-435
786-0 = system: 786-0
UO-31 = system: UO-31
HCT-116 = system: HCT-116
SK-MEL-28 = system: SK-MEL-28
SW-620 = system: SW-620
Hs-578T = system: Hs-578T
IGROV-1 = system: IGROV-1
SR = system: SR

SMILES	GI50 (SF-295)	GI50 (HT-29)	GI50 (Malme-3M)	GI50 (PC-3)	GI50 (HOP-92)	GI50 (BT-549)	GI50 (OVCAR-3)	GI50 (COLO 205)	GI50 (SNB-19)	GI50 (HCC 2998)	GI50 (MDA-MB-435)	GI50 (786-0)	GI50 (UO-31)	GI50 (HCT-116)	GI50 (SK-MEL-28)	GI50 (SW-620)	GI50 (Hs-578T)	GI50 (IGROV-1)	GI50 (SR)
CC(=N/NC(=S)N1CCCCC1)/C(C)=N\NC(=S)N1CCCCC1	1.71 µM (inactive)	1.93 µM (inactive)	2.08 µM (inactive)	1.86 µM (inactive)	1.48 µM (inactive)	1.92 µM (inactive)	1.74 µM (inactive)	1.95 µM (inactive)	1.88 µM (inactive)	2.12 µM (inactive)	1.87 µM (inactive)	1.76 µM (inactive)	1.59 µM (inactive)	2.34 µM (inactive)	2.08 µM (inactive)	2.14 µM (inactive)	1.85 µM (inactive)	1.58 µM (inactive)	
COC(=O)CCC1(C)C2CCC1/C(=N/O)C2 (configuration not stated)	> 100 µM (inactive)	> 100 µM (inactive)	> 100 µM (inactive)	> 100 µM (inactive)		> 100 µM (inactive)	> 100 µM (inactive)	> 100 µM (inactive)	> 100 µM (inactive)	> 100 µM (inactive)	> 100 µM (inactive)	> 100 µM (inactive)	> 100 µM (inactive)	> 100 µM (inactive)	> 100 µM (inactive)	> 100 µM (inactive)	> 100 µM (inactive)	> 100 µM (inactive)	> 100 µM (inactive)
CC[C@@H]1CC[C@@H]2[C@H](CC[C@]3(C)[C@@H](OS(=O)(=O)c4ccc(C)cc4)CC[C@@H]23)[C@H]1COS(=O)(=O)c1ccc(C)cc1	> 100 µM (inactive)	> 100 µM (inactive)	> 100 µM (inactive)	> 100 µM (inactive)	> 100 µM (inactive)	> 100 µM (inactive)			> 100 µM (inactive)	> 100 µM (inactive)	> 100 µM (inactive)	> 100 µM (inactive)	51.4 µM (inactive)	> 100 µM (inactive)	> 100 µM (inactive)	> 100 µM (inactive)	> 100 µM (inactive)	> 100 µM (inactive)	> 100 µM (inactive)
COc1cc(S(=O)(=O)Nc2nc(-c3ccc(N)cc3)cs2)ccc1Cl	43.4 µM (inactive)	54 µM (inactive)	> 100 µM (inactive)	51.8 µM (inactive)	64.9 µM (inactive)	51.9 µM (inactive)	54.3 µM (inactive)	32.1 µM (inactive)	91.4 µM (inactive)		83.6 µM (inactive)	> 100 µM (inactive)	85.7 µM (inactive)	65.2 µM (inactive)	69.3 µM (inactive)	> 100 µM (inactive)	91.4 µM (inactive)	44.7 µM (inactive)	61 µM (inactive)
CN1CCN(CCCNN)CC1	> 100 µM (inactive)	> 100 µM (inactive)		> 100 µM (inactive)	> 100 µM (inactive)	> 100 µM (inactive)	> 100 µM (inactive)	> 100 µM (inactive)	> 100 µM (inactive)	> 100 µM (inactive)	> 100 µM (inactive)	> 100 µM (inactive)	> 100 µM (inactive)	> 100 µM (inactive)	> 100 µM (inactive)	> 100 µM (inactive)	> 100 µM (inactive)	> 100 µM (inactive)	0.0327 µM (active)
CC(C)(O)CCC(O)C(C)(O)C1CCC2(O)C3=CC(=O)C4(O)CC(O)C(O)CC4(C)C3CCC12C.CC(C)(O)CCC(O)C(C)(O)C1CCC2(O)C3=CC(=O)C4CC(O)C(O)CC4(C)C3CCC12C (configuration not stated)	> 100 µM (inactive)	> 100 µM (inactive)	> 100 µM (inactive)	> 100 µM (inactive)	> 100 µM (inactive)	> 100 µM (inactive)	> 100 µM (inactive)	> 100 µM (inactive)	> 100 µM (inactive)		> 100 µM (inactive)	> 100 µM (inactive)	> 100 µM (inactive)	> 100 µM (inactive)	> 100 µM (inactive)	> 100 µM (inactive)	> 100 µM (inactive)	> 100 µM (inactive)	> 100 µM (inactive)
Cc1ccc(CC2(C(=O)O)Cc3ccc(C)cc3C2)cc1 (configuration not stated)	68.5 µM (inactive)	> 100 µM (inactive)	> 100 µM (inactive)	51.5 µM (inactive)		65.3 µM (inactive)	> 100 µM (inactive)	84.3 µM (inactive)	> 100 µM (inactive)	> 100 µM (inactive)	> 100 µM (inactive)	> 100 µM (inactive)	> 100 µM (inactive)	> 100 µM (inactive)	> 100 µM (inactive)	> 100 µM (inactive)	> 100 µM (inactive)	> 100 µM (inactive)	> 100 µM (inactive)
COc1cccc(-c2nc(O)c3ccccc3n2)c1OC	> 100 µM (inactive)	> 100 µM (inactive)	> 100 µM (inactive)	> 100 µM (inactive)		> 100 µM (inactive)	> 100 µM (inactive)	> 100 µM (inactive)	> 100 µM (inactive)	> 100 µM (inactive)	> 100 µM (inactive)	> 100 µM (inactive)	> 100 µM (inactive)	> 100 µM (inactive)		> 100 µM (inactive)	> 100 µM (inactive)	> 100 µM (inactive)	> 100 µM (inactive)
